In patent publication US11649222B2, “Compounds” (UNIVERSITETET I OSLO, priority 2016, dated 2023):
Counter-ions that a name gives are not always drawn. Like-named read-outs stand apart in the source and are kept apart here.

Legend:
[1] = system: K. pneumoniae K66-45 (NDM-1); assay: Microbroth dilution MIC of carbapenem with/without inhibitor; assay type: cell-based
Description: (§1) • Plate bacterial strain(s) on appropriate media: • Gram-negative bacteria with ESBLs or carbapenemases: green agar plates with 100 mg/L ampicillin • Gram-negative bacteria without β-lactamases: green agar plates • Gram-positive bacteria (Staphylococci and Enterococci): blood agar plates • Incubate o.n. at 37° C. […] (Should be used within 15 min of preparation). • Dilute the 0.5 McFarland suspension 1:100 into MH broth. […] Plate 10 μl of the dilution on MH agar plates (×2). Incubate o.n. at 37° C., count the colonies and calculate the final CFU/ml inoculum in the plate by multiplying the average number of colonies with 10000 and divide by 2. The final inoculum should be between 3-7×10^5 CFU/ml. • Add 50 μl of the prepared bacterial suspension to each well in the microtiter plate except negative growth control. Preparation of Compounds/Antibiotics • Calculate the desired concentration-range and volume of the compounds/antibiotics in the assay. […] Dilute the stock solution in MH broth. Make subsequent 2-fold dilutions in MH broth of the desired concentrations if a concentration range is to be tested (remember the extra dilution factor in the assay plate). Always include extra volume for pipetting. Take into consideration stock solutions that are made in buffers that have an effect on bacterial growth (e.g. DMSO).

human hepG2 cells = assay: In vitro toxicity in human hepG2 cells (AlamarBlue viability); assay type: cell-based
Description: For viability assays, cells were seeded in white 96-well Nunclon plates at a density of 20,000 cells/well and left overnight to adhere before experiments were conducted. Zn chelators dissolved in DMSO were added to white 96-well plates containing 20000 HepG2 cells/well at concentrations ranging from 1 to 1×10^−6 mM (max DMSO concentration never exceeded 1%) and incubated for 24 hours at 37° C. After 24 hours, AlamarBlue® cell viability reagent (Thermo Fisher, Carlsbad, USA) was added (10% final concentration) and incubated for 4 hours at 37° C.

C. freundii (NDM) = assay: Microbroth dilution MIC of meropenem ± 25 mg/L inhibitor; assay type: cell-based
Description: (§2) • Plate bacterial strain(s) on appropriate media: • Gram-negative bacteria with ESBLs or carbapenemases: green agar plates with 100 mg/L ampicillin • Gram-negative bacteria without β-lactamases: green agar plates • Gram-positive bacteria (Staphylococci and Enterococci): blood agar plates • Incubate o.n. at 37° C. Day 2: Prepare the Bacterial Inoculum: • Prepare a 0.5 McFarland suspension of bacteria in 0.85% NaCl. (Should be used within 15 min of preparation). • Dilute the 0.5 McFarland suspension 1:100 into MH broth. Check the inoculum by diluting the prepared bacterial suspension 1:100 (10 μl bacterial suspension+990 μl 0.85% NaCl). Plate 10 μl of the dilution on MH agar plates (×2). Incubate o.n. at 37° C., count the colonies and calculate the final CFU/ml inoculum in the plate by multiplying the average number of colonies with 10000 and divide by 2. The final inoculum should be between 3-7×10^5 CFU/ml. • Add 50 μl of the prepared bacterial suspension to each well in the microtiter plate except negative growth control. Preparation of Compounds/Antibiotics • Calculate the desired concentration-range and volume of the compounds/antibiotics in the assay. […] Dilute the stock solution in MH broth. Make subsequent 2-fold dilutions in MH broth of the desired concentrations if a concentration range is to be tested (remember the extra dilution factor in the assay plate). Always include extra volume for pipetting. Take into consideration stock solutions that are made in buffers that have an effect on bacterial growth (e.g. DMSO).

C. freundii (NDM-1) = assay: as above; assay type: cell-based
Description: as §2

E. cloacae (VIM) = assay: as above; assay type: cell-based
Description: as §2

E. coli (VIM-1) = assay: as above; assay type: cell-based
Description: as §2

K. pneumoniae (NDM) = assay: as above; assay type: cell-based; details: K. pneumoniae NDM (several strains)
Description: as §2

K. pneumoniae (NDM-7) = assay: as above; assay type: cell-based
Description: as §2

K. pneumoniae (VIM) = assay: as above; assay type: cell-based
Description: as §2

[2] = system: M. morganii (OXA48+ NDM-1); assay: as above; assay type: cell-based
Description: as §2

P. mirabilis (NDM-1) = assay: as above; assay type: cell-based
Description: as §2

P. stuartii (NDM) = assay: as above; assay type: cell-based
Description: as §2

P. stuartii (NDM-1) = assay: as above; assay type: cell-based
Description: as §2

K. pneumoniae K66-45 = assay type: cell-based; details: inhibitor 25 mg/L; MEM 1 mg/L
Description: After plating and grown overnight at 37° C., only single colonies, ignoring any touching the edges of the plate, were counted.
10^9 CFU K66-45 (Mueller-Hinton broth, no selection) was plated and grown overnight, 37° C. Only single colonies, ignoring any touching the edges of the plate, were counted.

[3] = Solution stability on storage, measured indirectly by MIC; assay type: physicochemical; details: solution stored at 2-8° C.; MIC at 25 mg/L inhibitor
Text: P. aeruginosa harboring VIM-2 and K. pneumonia bearing NDM-1 was used as two indicator strains.

[4] = In vivo toxicity in healthy mice; parameters: species or system Balb/c mice; details: ± SEM
Description: Female Balb/c mice (4 weeks old, approximately 20 g, Charles River, L'Arbresle, France) acclimatized 4 days in the animal facility before initiation of experiments. […] Individual weights were followed four days a week. Relative weight was calculated as the ratio between the weight of the day and the weight of the first day. The protocol for experiments in mice was approved by the University of Lyon Animal Ethics Committee. Toxicity experiments were performed by Antineo (www.antineo.fr).

[5] = system: P. aeruginosa K34-7 (VIM-2); assay: Microbroth dilution MIC of carbapenem with/without inhibitor; assay type: cell-based; details: inhibitor 63 mg/L
Description: as §1

[6] = system: K. pneumoniae 50732159 (No MBL); assay: Microbroth dilution MIC of meropenem with/without inhibitor; assay type: cell-based; details: inhibitor 63 mg/L
Description: as §1

[7] = system: P. aeruginosa 50692172 (NDM-1); assay: as above; assay type: cell-based; details: inhibitor 63 mg/L
Description: as §1

[8] = system: P. aeruginosa 50808021 (No MBL); assay: as above; assay type: cell-based; details: inhibitor 63 mg/L
Description: as §1

[9] = system: resistant gram-negative MBL-based bacteria; assay: MICx: adjuvant concentration giving carbapenem MIC ≤ 2 mg/L; assay type: cell-based; details: lowest concentration of compound X that results in a MIC value of ≤ 2 mg/L for carbapenem antibiotics
Description: as §1

VIM-2 = VIM-2 (Escherichia coli, UniProt Q5U7L7); assay type: biochemical; details: purified VIM-2, PD-10 column
Description: The eluent used was Chelex-treated HEPES 50 mM buffer, pH 7.5. […] In all experiments, 16 aliquots of 250 μL were taken from the PD-10 column runsout and enzyme activity was analysed. Enzyme activity was measured by adding Nitrocefin as a reporter substrate (final concentration of 50 μM).
To investigate if more extreme time-dependent and concentration-dependent conditions could restore enzyme activity, aliquots having final concentrations of 30 nM column-treated enzyme and 1000 μM Zn^2+ on ice and at room temperature over prolonged time.

neurons = details: Canzoniero et al.; cited from earlier work

## C[C@@H](N)C(=O)N[C@H](C)C(=O)NCCc1ccc(NC(=O)c2ccc(CN(Cc3ccccn3)Cc3ccccn3)nc2)cc1 [Example 195, N-(4-(2-((R)-2-((R)-2-aminopropanamido)propanamido)ethyl)phenyl)-6-((bis(pyridin-2-ylmethyl)amino)methyl)nicotinamide hydrochloride]
[1]; Klebsiella pneumoniae, read-out: MIC of MEM in the presence of inhibitor
  MIC: 0.125 µg/mL
Human hepG2 cells; Homo sapiens, HepG2, 24 h
  IC50: > 1000 µM
C. freundii (NDM)
  MIC meropenem + 25 mg/L Example 195: 0.06 µg/mL
C. freundii (NDM-1)
  MIC meropenem + 25 mg/L Example 195: 0.125 µg/mL
E. cloacae (VIM)
  MIC meropenem + 25 mg/L Example 195: <0.03 µg/mL
E. coli (VIM-1)
  MIC meropenem + 25 mg/L Example 195: <0.03 µg/mL
K. pneumoniae (NDM)
  MIC meropenem + 25 mg/L Example 195: 0.06 µg/mL
K. pneumoniae (NDM-7)
  MIC meropenem + 25 mg/L Example 195: <0.03 µg/mL
K. pneumoniae (VIM)
  MIC meropenem + 25 mg/L Example 195: 0.125 µg/mL
[2]
  MIC meropenem + 25 mg/L Example 195: 1 µg/mL
P. mirabilis (NDM-1)
  MIC meropenem + 25 mg/L Example 195: 0.125 µg/mL
P. stuartii (NDM)
  MIC meropenem + 25 mg/L Example 195: 0.25 µg/mL
P. stuartii (NDM-1)
  MIC meropenem + 25 mg/L Example 195: 0.125 µg/mL
K. pneumoniae K66-45
  RF - no of colonies: 163 colonies
[3]
  storage time after which the activity was absent: 8 months
  storage time at which a loss of activity was observed: 5 months
[4]; Day 1, treatment 4 mg/kg intraperitoneally
  Relative weight of mice: 100 ± 0%
[4]; Day 8, treatment 8 mg/kg
  Relative weight of mice: 98 ± 5%
[4]; Day 16, treatment 16 mg/kg
  Relative weight of mice: 103 ± 3%
[4]; Day 22, treatment 32 mg/kg
  Relative weight of mice: 103 ± 3%
[4]; Day 29, treatment 64 mg/kg
  Relative weight of mice: 106 ± 6%
[4]; Day 36, treatment 120 mg/kg
  Relative weight of mice: 110 ± 8%
[4]; Day 43, no injection, reporting
  Relative weight of mice: 110 ± 8%

## c1ccc(CN(CCN(Cc2ccccn2)Cc2ccccn2)Cc2ccccn2)nc1 [TPEN, N,N,N′,N′-tetrakis(2-pyridylmethyl) ethylenediamine, reference compound]
[1]; inhibitor 63 mg/L, K. pneumoniae K66-45 NDM-1
  Meropenem activity in presence of inhibitor: ≤0.5 mg/L
[5]
  Meropenem activity in presence of inhibitor: 1 mg/L
[6]
  Meropenem activity in presence of inhibitor: ≤0.064 mg/L
[7]
  Meropenem activity in presence of inhibitor: ≤0.5 mg/L
[8]
  Meropenem activity in presence of inhibitor: 64 mg/L
[9]
  MICx: 15 µM
Human hepG2 cells; human hepG2 cells, 24 hours, AlamarBlue, 8 replicates, read-out: IC50
  IC50: 7.1 µM
Human hepG2 cells; human hepG2 cells, read-out: IC50h
  IC50: 7 µM
VIM-2
  irreversibility of VIM-2 inhibition: irreversibly inhibited
neurons
  EC50: ~5 µM
